Tests used:
B-CLL cells [1] = test: Flow cytometric apoptosis / cell survival assay (Annexin V, PI) of B-CLL cells; type: cell-based, human
Procedure: Apoptosis and cell survival assay. Cells were harvested at the indicated time points by staining all cells from a given well with mAb for CD19, CD5 and FITC-labeled Annexin V (BD Biosciences, San Diego, Calif.). A predetermined number of calibration beads (CaliBRITE™ Beads, BD Biosciences, San Diego, Calif.) were then added to each sample to allow for normalization of cell counts in different samples at different time points.
(§1) Flow cytometric apoptosis assays. Cells were stained with Annexin V (BD Biosciences, San Diego, Calif.), or cell-permeable fluorogenic substrates specific for Granzyme B or Caspase 6 for 1 hour at room temperature according to the manufacturer's instructions (Oncolmmunin, Gaithersburg. Md.). A pre-determined number of calibration beads (CaliBRITE™ Beads, BD Biosciences, San Diego, Calif.) was added to each sample to allow for normalization of cell counts at different time points. Propidium iodide at 1 μg/ml was added just prior to flow cytometric analysis. The count of viable cells rather than the count of apoptotic cells was used for the calculation of cell survival because of concerns some non-viable cells may have undergone lysis and not have been available for counting. Absolute cell survival was expressed as percentage of viable cell counts relative to initial plating counts.

B-CLL cells [2] = test: Intracellular flow cytometry for Granzyme B, Granzyme A and Perforin in B-CLL cells; type: cell-based, human; details: 18 hours, Brefeldin A for the last hours
Procedure: Flow cytometry. […] For flow cytometric Granzyme and Perforin detection, cells were incubated at 1×10^6/ml for 13 hrs, Brefeldin A (Epicentre Technologies, Madison, Wis.) added to a final concentration of 1 mg/ml, and cells cultured for 5 more hours. Intracellular staining was performed using a Fix and Perm kit (Caltag Laboratories, Burlingame, Calif.) according to the manufacturer's instructions. Briefly, cells were washed once and resuspended in Fixation Buffer, incubated for 15 minutes at room temperature and washed with PBS. Cells were then resuspended in Permeabilization Buffer and PE- or FITC-labeled antibodies to Granzyme B (clone GB12; Caltag Laboratories), Perforin (clone dG9; BD Pharmingen), Granzyme A (clone CB9; BD Pharmingen) or suitable control antibodies were added. After another 15 minute incubation at room temperature, cells were washed with PBS. Flow cytometric analyses were performed on a FACScan (Becton Dickinson Immunocytometry Systems, San Jose, Calif.) and data analyzed using the program FlowJo (version 6.4.1, Tree Star Inc., Stanford, Calif.).

[3] = system: untreated, bystander B-CLL cells; test: Bystander cell killing assay with autologous B-CLL cells; type: cell-based, human; details: 24 hours treatment, washed, 2 days co-culture
Procedure: Bystander cell assay. Cells were harvested from CLL subjects and separated into aliquots. One aliquot was treated with CpG ODN, IL-21 or both, while a second was untreated but labeled with a membrane dye. Both aliquots were washed thoroughly, and mixed together in the indicated ratio. Cells were harvested after two days, and the number of viable cells in each aliquot determined by gating on the stained or unstained cells.
(§2) Flow cytometry. Antibodies to CD5, CD19, CD27 as well as CD107a were purchased from BD Bioscoences (San Diego, Calif.). IL-21 receptor protein expression was detected using a mAB (clone 152512) from R&D Systems (Minneapolis, Minn.). PKH26 staining was used to identify untreated cells in bystander assays. B-CLL cells were resuspended at a density of 1×10^7 cells/ml in diluent C containing 2 μM PKH26 (both from Sigma, Saint Louis, Mo.). […] Flow cytometric analyses were performed on a FACScan (Becton Dickinson Immunocytometry Systems, San Jose, Calif.) and data analyzed using the program FlowJo (version 6.4.1, Tree Star Inc., Stanford, Calif.).
B-CLL cells treated with CpG ODN and IL-21 can kill untreated autologous cells. […] The inventors next evaluated whether B-CLL cells treated with IL-21 and CpG ODN have the potential to kill. […] The survival of the unstained, untreated cells was then evaluated by flow cytometry.

[4] = system: benign peripheral blood B cells; test: Granzyme B flow cytometry and ELISpot with purified benign peripheral B cells; type: cell-based, human
Procedure: as §2, with “Mo.). After 3 minutes, the reaction was stopped by adding an equal volume of FBS (HyClone, Ogden, Utah). Subsequently cells were washed 3 times and finally resuspended in AIM-V medium. For flow cytometric Granzyme and Perforin detection, cells were incubated at 1×10^6/ml for 13 hrs, Brefeldin A (Epicentre Technologies, Madison, Wis.) added to a final concentration of […], and cells cultured for 5 more hours.” for “Mo.).”
Elispot assays for human Granzyme B and Perforin. […] Plates were dried completely, and spots read on an Immunospot Series 1 Analyzer and counted using Immunospot 3 software, both from C.T.L. Cellular Technology Ltd. (Cleveland, Ohio).

benign B cells = test: Apoptosis / cell survival assay of benign B cells; type: cell-based, human; details: 3 days of culture
Procedure: as §1, with “Apoptosis and cell survival assay. Cells were harvested at the indicated time points by staining all cells from a given well with mAb for CD19, CD5 and FITC-labeled Annexin V (BD Biosciences, San Diego, Calif.). A predetermined number of calibration beads (CaliBRITE™ Beads, BD Biosciences, San Diego, Calif.) were then added to each sample to allow for normalization of cell counts in different samples at different time points. Flow” for “Flow”

Purified B cells = test: RT-PCR for granzyme B and perforin in purified B cells; type: cell-based, human; details: 18 hours, with or without anti-BCR antibodies
Procedure: Purified B cells (purity >99.9%) were cultured for 18 hours in the presence or absence of IL-21 and B cell receptor stimulation (anti-BCR antibodies). Subsequently RNA was isolated and real time RT-PCR with specific primers and probes for granzyme B and perforin was performed. In addition to real time RT-PCR, conventional RT-PCR was also performed and PCR products were run on a gel. The expected amplicon sized are 218 bp (base pairs) and 146 bp for granzyme B and perforin respectively.

[5] = system: Daudi cells (pre-B cell line); test: IFN-γ ELISpot with Daudi cells; type: cell-based; details: 10^5 cells/well, 16 hours
Procedure: Daudi cells (pre-B cell line) were incubated on IFN-γ-ELISpot plates in the presence of IL-21, CpG ODN, B cell receptor stimulation or various combinations at a cell concentration of 10^5 cells/well. After 16 hours plates were developed and analyzed.

IL-21 receptor = test: Flow cytometry of IL-21 receptor protein on B-CLL cells; type: cell-based, human; details: after 4 and 7 days of incubation, ODN 2.5 μg/ml, FACS
Procedure: Flow cytometry. Antibodies to CD5, CD19, CD27 as well as CD107a were purchased from BD Bioscoences (San Diego, Calif.). IL-21 receptor protein expression was detected using a mAB (clone 152512) from R&D Systems (Minneapolis, Minn.). PKH26 staining was used to identify untreated cells in bystander assays. B-CLL cells were resuspended at a density of 1×10^7 cells/ml in diluent C containing 2 μM PKH26 (both from Sigma, Saint Louis, Mo.). After 3 minutes, the reaction was stopped by adding an equal volume of FBS (HyClone, Ogden, Utah). Subsequently cells were washed 3 times and finally resuspended in AIM-V medium. For flow cytometric Granzyme and Perforin detection, cells were incubated at 1×10^6/ml for 13 hrs, Brefeldin A (Epicentre Technologies, Madison, Wis.) added to a final concentration of […], and cells cultured for 5 more hours. Intracellular staining was performed using a Fix and Perm kit (Caltag Laboratories, Burlingame, Calif.) according to the manufacturer's instructions. Briefly, cells were washed once and resuspended in Fixation Buffer, incubated for 15 minutes at room temperature and washed with PBS. […] Flow cytometric analyses were performed on a FACScan (Becton Dickinson Immunocytometry Systems, San Jose, Calif.) and data analyzed using the program FlowJo (version 6.4.1, Tree Star Inc., Stanford, Calif.).

Row | Substance | apoptosis of B-CLL cells (B-CLL cells [1]; 4 days, Annexin V and PI) | ED50 to induce apoptosis of B-CLL cells (B-CLL cells [1]; agent alone, 4 days) | apoptosis of CD5-negative, atypical B-CLL (B-CLL cells [1]; preliminary, unpublished results) | Granzyme B(+) B-CLL cells, flow cytometry gating on CD19(+) (B-CLL cells [2]) | killing of untreated autologous bystander B-CLL cells by treated B-CLL cells [3] | Granzyme B expression by highly purified (99.9%) benign B cells [4] | apoptosis of benign B cells (benign B cells) | transcription of the gene for granzyme B in B cells (Purified B cells) | transcription of the gene for perforin in B cells (Purified B cells) | secretion of interferon-γ by Daudi cells [5] | IL-21 receptor protein levels on B-CLL cells (IL-21 receptor)
1 | IL-21: cytokine of 131 residues (SEQ ID NO:1); Human IL-21 purchased from BioSource | induced some apoptosis | 0.04 µg/mL | do not undergo apoptosis | rare Granzyme B(+) B cells | No such bystander effect | induced expression of Granzyme B | Neither IL-21 alone nor IL-21 plus CpG ODN induced apoptosis | induces transcription | induces transcription | induces the secretion | 
2 | control ODN: phosphorothioate-phosphodiester-modified control oligodeoxynucleotide 2243, 5′-GGGGGAGCATGCTGGGGGGG-3′ (SEQ ID NO:5) (DNA GGGGGAGCATGCTGGGGGGG; DNA, backbone and methylation of C not given here; phosphorothioate-phosphodiester chimeric backbone) |  |  |  |  |  |  |  |  |  |  | no detectable effect

— patent US20070071717A1, “Treatment of B cells with IL-21 and B cell activators induces Granzyme B production” (University of Iowa Research Foundation, priority 2005, published 2007)
